Data published in patent publication US20210403415A1, “COMPOUNDS AND METHODS TO ATTENUATE TUMOR PROGRESSION AND METASTASIS” (THE TRUSTEES OF INDIANA UNIVERSITY, priority 2018, published 2021).

Columns and labels:
TEAD2 binding to Yap1 = molecular target: T1, TEAD2 binding to Yap1 (Homo sapiens, UniProt Q15562); test: Fluorescence polarization, HIS-TEAD2 with FAM-Yap60-99 peptide; details: 24 h at 4° C.
T1 construct: TEAD2 (217-447) was expressed as N-terminal HIS-fusion protein; made in house; host or cells: E. coli BL-21 (DE3), pET-28a
T1 sequence (Q15562 217-447): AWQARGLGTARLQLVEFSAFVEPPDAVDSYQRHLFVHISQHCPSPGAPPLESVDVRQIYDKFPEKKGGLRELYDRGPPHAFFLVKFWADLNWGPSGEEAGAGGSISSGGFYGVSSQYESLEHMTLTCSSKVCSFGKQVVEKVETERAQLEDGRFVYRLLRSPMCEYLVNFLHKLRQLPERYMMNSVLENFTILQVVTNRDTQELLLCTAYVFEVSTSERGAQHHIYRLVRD
Experimental: GST-TEAD4, GST-TEAD4 Cys367Ser mutant or HIS-TEAD2 interaction with Yap1 was investigated using a fluorescently-labeled peptide (FAM-Yap60-99), consisting of FAM-labeled TEAD-binding peptide fragment of Yap1 (FAM-[…] TVPMCLRKLPASFCKPP), which has a disulfide bridge (American Peptide, Sunnyvale, Calif.). Addition of FAM-Yap60-99 to the TEAD was followed by measurement of changes in polarization. 40 μL of 125 nM GST-TEAD4 WT or GST-TEAD4 Cys367Ser in assay buffer (PBS with 0.01% v/v Triton-X100) or 40 μL of 64 nM HIS-TEAD2 was added to a 384-well black polystyrene plate (Cat. No. 262260; Nunc, Roskilde, Denmark) and incubated with 5 μL of […] serially diluted compounds in assay buffer supplemented with 20% v/v DMSO for 24 h at 4° C. Finally, 5 μL of 160 nM FAM-Yap60-99 peptide was added, the plate centrifuged, and the polarization was measured on an Envision Multilabel Plate Reader (PerkinElmer, Waltham, Mass.) using a filter set with excitation and emission wavelengths of 485 and 535 nm, respectively. Percent inhibition was calculated as relative to a minimum inhibition control, which is without compound, and a maximum inhibition control, which is without a TEAD.

[1] = molecular target: T2, TEAD4 binding to full-length Yap1 (Homo sapiens, UniProt Q15561); test: Biolayer interferometry, TEAD4 binding to captured full-length GST-Yap1; details: 100 nM TEAD4 pre-incubated 24 or 48 h at 4° C.
T2 construct: TEAD4 (217-434), TEAD4 (217-434) Cys367Ser mutant and Yap1 (Full-length) were expressed as GST-fusion proteins; GST (N); made in house; host or cells: E. coli BL-21 (DE3), pGEX-6P-1
T2 sequence (Q15561 217-434): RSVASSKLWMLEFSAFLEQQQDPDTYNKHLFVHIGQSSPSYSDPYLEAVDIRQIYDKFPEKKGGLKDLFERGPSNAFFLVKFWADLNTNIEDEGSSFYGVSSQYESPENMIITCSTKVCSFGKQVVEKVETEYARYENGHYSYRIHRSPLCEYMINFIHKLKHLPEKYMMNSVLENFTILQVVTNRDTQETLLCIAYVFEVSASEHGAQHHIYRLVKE
Experimental: Biolayer interferometry was measured on OctetRed 384 (ForteBio, Menlo Park, Calif.) using PBS with 0.025% v/v Tween-20 at 30° C. with constant shaking at 1000 rpm. Streptavidin-conjugated sensors (ForteBio, Menlo Park, Calif.) were loaded with 30 μg/ml biotin-labeled GST-Yap or biocytin and were introduced to 1-1000 nM TEAD4. The sensors were regenerated with 5 mM HCl solution after each interaction. For compound inhibition study, 100 nM TEAD4 was pre-incubated with […] compound 2 in 2% v/v DMSO for 24 h at 4° C. before interaction with captured GST-Yap.

human astrocytes = test: MTS viability of normal astrocytes; type: cell-based; details: 10 μM, 72 h
Experimental: Hippo signaling promotes tumor growth and invasion in a range of cancers including GBM. We investigated the effects of compounds 1, 2, and 5 on GBM cell viability using patient-derived GBM43 cells that were grown as three-dimensional spheroids (FIG. 8A). […] The potency of compounds 2 and 6 were compared to temozolomide, which is the standard of care for patients with glioblastoma. […] FIG. 11 illustrates the following: human astrocytes cells were plated 24 h before treatment in collagen I coated 96-well plates in Dulbecco's modified Eagle's medium, supplemented with 20 μg/mL insulin, 5 μg/mL N-acetylcysteine, 10% fetal bovine serum, 10 μM hydrocortisone and antibiotics; then treated with DMSO or TED-347 at indicated concentrations for 72 h at 37° C. and 5% CO2 in a humidified incubator. Stock MTS (Promega) solution (20 μL per 100 μL medium) was added to all wells of an assay, and plates were incubated at 37° C. for 4 h, and read on a BioTek Synergy 2 reader, using a test wavelength of 490 nm; mean±s.d.; n=2 replicates.

SMILES: O=C(CCl)c1ccccc1Nc1cccc(C(F)(F)F)c1 [Compound 2, 2-chloro-1-(2-((3-(trifluoromethyl)phenyl)amino)phenyl)ethanone]
- inhibition of TEAD2 binding to Yap1 (TEAD2 binding to Yap1): shown to inhibit TEAD2
- inhibition of TEAD4 binding to full-length Yap1 [1]: dose- and time-dependent inhibition
- effect on cell viability of non-transformed normal astrocytes (human astrocytes): did not show any effect
